Test results from ChEMBL document CHEMBL5257159, “Insights into targeting SARS-CoV-2: design, synthesis, in silico studies and antiviral evaluation of new dimethylxanthine derivatives” (RSC Med Chem, 2023).

Legend:
SARS-CoV-2 = assay: Antiviral activity against SARS-CoV-2 NRC-03-nhCoV infected in african green monkey Vero E6 cells assessed as inhibition of virus-induced cytopathic effect measured after 72 hrs by crystal violet staining based assay; format: functional, organism-based; details: Severe acute respiratory syndrome coronavirus 2, NRC-03-nhCoV, Vero C1008, 72 h
[1] = Selectivity index, ratio of CC50 for african green monkey Vero E6 cells to IC50 for antiviral activity against SARS-CoV-2 NRC-03-nhCoV infected in african green monkey Vero E6 cells; format: toxicity, Vero C1008; details: read-out: Ratio CC50/IC50
[2] = Cytotoxicity against African green monkey Vero E6 cells measured after 72 hrs by MTT assay; format: toxicity, cell-based, Vero C1008; details: chlorocebus sabaeus
[3] = biological target: Replicase polyprotein 1ab (Severe acute respiratory syndrome coronavirus 2, UniProt P0DTD1); assay: Inhibition of recombinant SARS-CoV-2 main protease expressed in Escherichia coli BL21 using Dabcyl-EDANS and Boc-Abu-Tle-Leu-Gln-AMC as substrate

| SMILES | IC50 (SARS-CoV-2) [µM] | selectivity ratio [1] | CC50 at 72 h [2] [µM] | IC50 [3] [µM] |
| --- | --- | --- | --- | --- |
| Cn1c(=O)c2c(nc3n2CC=C(O)N3c2ccc(S(N)(=O)=O)cc2)n(C)c1=O | 16 | 127 | 2040 | – |
| CCC(CC)COC(=O)[C@H](C)N[P@](=O)(OC[C@H]1O[C@@](C#N)(c2ccc3c(N)ncnn23)[C@H](O)[C@@H]1O)Oc1ccccc1 | 10.1 | – | 608 | – |
| Cn1c(=O)c2c(nc3n(CC#Cc4ccc(Cl)c(Cl)c4)ccn23)n(C)c1=O | – | – | – | 4.7 |
